# ChEMBL document CHEMBL5346934 (J Med Chem, 2023)
# pEC50, pIC50: −log10 of the molar value.
# How the values were obtained:
# Vaccinia virus [1] = assay: Antiviral activity against Vaccinia virus infected in African green monkey Vero cells incubated for 24 hrs; assay type: functional, organism-based; conditions: Orthopoxvirus vaccinia
# Ectromelia virus [2] = assay: Antiviral activity against ectromelia virus K-1 infected in Vero cells; assay type: functional, organism-based; conditions: K-1, Vero
# Cowpox virus [3] = assay: Antiviral activity against Cowpox virus Grishak infected in African green monkey Vero cells; assay type: functional, organism-based
# Vaccinia virus [4] = assay: Antiviral activity against Vaccinia virus Copenhagen infected in African green monkey Vero cells; assay type: functional, organism-based; conditions: Orthopoxvirus vaccinia
# Vaccinia virus [5] = assay: Antiviral activity against Vaccinia virus WR-GFP infected in BSC40 cells assessed as reduction in plaque formation measured after 72 hrs by crystal violet staining based analysis; assay type: functional, organism-based; conditions: Orthopoxvirus vaccinia, BSC-40, 72 h
# Vaccinia virus [6] = assay: Antiviral activity against Vaccinia virus IHD-J infected in BSC40 cells assessed as reduction in plaque formation measured after 72 hrs by crystal violet staining based analysis; assay type: functional, organism-based; conditions: Orthopoxvirus vaccinia, BSC-40, 72 h
# Vaccinia virus [7] = assay: Antiviral activity against Vaccinia virus Copenhagen infected in human HFF cells assessed as reduction in viral replication measured after 3 days; assay type: functional, organism-based; conditions: Orthopoxvirus vaccinia, 72 h
# Vaccinia virus [8] = assay: Antiviral activity against Cowpox virus Brighton infected in human HFF cells assessed as reduction in viral replication measured after 3 days; assay type: functional, organism-based; conditions: Orthopoxvirus vaccinia, 72 h
# Vaccinia virus [9] = assay: Antiviral activity against Vaccinia virus infected in Vero cells measured after 4 days by colorimetric assay; assay type: functional, organism-based; conditions: Orthopoxvirus vaccinia, 96 h
# Ectromelia virus [10] = assay: Antiviral activity against ectromelia virus K-1 infected in Vero cells measured after 4 days by colorimetric assay; assay type: functional, organism-based; conditions: K-1, Vero, 96 h
# Monkeypox virus [11] = assay: Antiviral activity against Monkeypox virus V79-1-005 infected in Vero cells measured after 4 days by colorimetric assay; assay type: functional, organism-based; conditions: V79-1-005, Vero, 96 h
# Vaccinia virus [12] = assay: Antiviral activity against Vaccinia virus infected in African green monkey BSC-1 cells incubated for 24 hrs by microscopic analysis; assay type: functional; conditions: Orthopoxvirus vaccinia
# Vaccinia virus [13] = assay: Antiviral activity against Vaccinia virus infected in human HFF cells assessed as reduction in plaque formation measured after 7 days by colorimetric assay; assay type: functional, organism-based; conditions: Orthopoxvirus vaccinia, 168 h
# Vaccinia virus [14] = assay: Antiviral activity against wild type Vaccinia virus IHD infected in monkey Vero cells assessed as reduction in plaque formation measured after 7 days; assay type: functional, organism-based; conditions: Orthopoxvirus vaccinia, 168 h
# Vaccinia virus [15] = assay: Antiviral activity against Vaccinia virus IHD infected in African green monkey Vero cells assessed as reduction in plaque formation measured after 7 days; assay type: functional, organism-based; conditions: Orthopoxvirus vaccinia, 168 h
# Cowpox virus [16] = assay: Antiviral activity against Cowpox virus Brighton infected in Vero cells measured after 4 days by colorimetric assay; assay type: functional, organism-based; conditions: 96 h
# Vaccinia virus [17] = assay: Antiviral activity against Vaccinia virus Copenhagen infected in HFF cells measured after 3 days by colorimetric assay; assay type: functional, organism-based; conditions: Orthopoxvirus vaccinia, 72 h
# Vaccinia virus [18] = assay: Antiviral activity against Vaccinia virus infected in human HFF cells; assay type: functional, organism-based; conditions: Orthopoxvirus vaccinia
# Human alphaherpesvirus 2 = assay: Antiviral activity against Herpes simplex virus 2; assay type: functional, organism-based
# Variola virus [19] = assay: Antiviral activity against Variola virus 7124 infected in monkey LLC-MK2 cells; assay type: functional, organism-based; conditions: Variola virus, 7124, LLC-MK2
# Vaccinia virus [20] = assay: Antiviral activity against Vaccinia virus GFP infected in green monkey CV-1 cells assessed as reduction in plaque formation measured after 2.5 days by microscopic analysis; assay type: functional, organism-based; conditions: Orthopoxvirus vaccinia, CV-1, 60 h
# Vaccinia virus [21] = assay: Antiviral activity against Vaccinia virus GFP infected in green […] cells assessed as reduction in plaque formation measured after 2.5 days by microscopic analysis; assay type: functional, organism-based; conditions: Orthopoxvirus vaccinia, HT-1080, 60 h
# Vaccinia virus [22] = assay: Antiviral activity against wild type Vaccinia virus infected in African monkey Vero cells measured after 5 days by MTT assay; assay type: functional, organism-based; conditions: Orthopoxvirus vaccinia, 120 h
# Monkeypox virus [23] = assay: Antiviral activity against Monkeypox virus Zr-599 infected in African green monkey Vero E6 cells assessed as reduction in plaque formation measured after 72 hrs by microscopic analysis; assay type: functional, organism-based; conditions: Zr-599, Vero C1008, 72 h
# Vaccinia virus [24] = assay: Antiviral activity against Vaccinia virus infected in African green monkey Vero cells; assay type: functional, organism-based; conditions: Orthopoxvirus vaccinia
# Vaccinia virus [25] = assay: Antiviral activity against wild type Vaccinia virus infected in human HFF cells assessed as reduction in viral replication measured after 5 days by microscopic analysis; assay type: functional, organism-based; conditions: Orthopoxvirus vaccinia, 120 h
# Vaccinia virus [26] = assay: Antiviral activity against Vaccinia virus infected in human HFF cells measured after 4 days by colorimetric assay; assay type: functional, organism-based; conditions: Orthopoxvirus vaccinia, 96 h
# Cowpox virus [27] = assay: Antiviral activity against Cowpox virus infected in African green monkey BSC-1 cells; assay type: functional, organism-based
# Vaccinia virus [28] = assay: Antiviral activity against Vaccinia virus infected in African green monkey BSC-1 cells; assay type: functional, organism-based, Orthopoxvirus vaccinia; conditions: Orthopoxvirus vaccinia, BSC-1
# Vaccinia virus [29] = assay: Antiviral activity against Vaccinia virus VG9 infected in African green monkey BSC-1 cells; assay type: functional, organism-based, Orthopoxvirus vaccinia; conditions: Orthopoxvirus vaccinia, VG9, BSC-1
# Variola virus [30] = assay: Antiviral activity against Variola virus 7124 infected in African green monkey BSC-1 cells; assay type: functional, organism-based; conditions: Variola virus, 7124, BSC-1
# Monkeypox virus [31] = assay: Antiviral activity against Monkeypox virus infected in African green monkey BSC-1 cells; assay type: functional, organism-based
# Vaccinia virus [32] = assay: Antiviral activity against Vaccinia virus infected in monkey BSC40 cells assessed as reduction in virus-induced cytopathic effect; assay type: functional, organism-based; conditions: Orthopoxvirus vaccinia, BSC-40
# Camelpox virus = assay: Antiviral activity against Camelpox virus infected in human HEL cells assessed as reduction in virus-induced cytopathic effect measured after 5 days by microscopic analysis; assay type: functional, organism-based; conditions: 120 h
# Vaccinia virus [33] = assay: Antiviral activity against Vaccinia virus Lister infected in human HEL cells assessed as virus-induced cytopathic effect measured after 5 days by microscopic analysis; assay type: functional, organism-based; conditions: Orthopoxvirus vaccinia, 120 h
# [34] = Cytotoxicity against African green monkey VERO cells assessed as inhibition of cell growth incubated for 24 hrs by MTT assay; assay type: toxicity, cell-based; conditions: chlorocebus sabaeus
# Cowpox virus [35] = assay: Antiviral activity against Cowpox virus Brighton infected in human HFF cells assessed as assessed as reduction in virus-induced cytopathic effect incubated for 7 days by microscopic analysis; assay type: functional, organism-based; conditions: 168 h
# Vaccinia virus [36] = assay: Antiviral activity against Vaccinia virus Copenhagen infected in human HFF cells assessed as assessed as reduction in virus-induced cytopathic effect incubated for 7 days by microscopic analysis; assay type: functional, organism-based; conditions: Orthopoxvirus vaccinia, 168 h
# Vaccinia virus [37] = assay: Antiviral activity against Vaccinia virus infected in African green monkey Vero cells assessed as reduction virus induced cytopathic effect incubated for 24 hrs by MTT assay; assay type: functional, organism-based; conditions: Orthopoxvirus vaccinia
# [38] = Inhibition of D4 receptor (unknown origin); design: species or system Homo sapiens
compound,measurement,setting,value
CCNC(=O)OCC12CC3CC(CC(C3)C1)C2,pEC50,Vaccinia virus [1],4.83
CC1(C)[C@@H]2CC[C@@]1(C)C(NC(=O)c1ccc([N+](=O)[O-])cc1)C2 (some centres not stated),pEC50,Ectromelia virus [2],6.39
same,pEC50,Cowpox virus [3],5.85
same,pEC50,Vaccinia virus [4],7.52
O=C1CN(C(=O)c2nccs2)C(c2cccc(Cl)c2)c2cc(Br)ccc2N1 (configuration not stated),pIC50,Vaccinia virus [5],5.89
same,pEC50,Vaccinia virus [6],6.30
NC(=S)N/N=C1\C(=O)Nc2ccccc21,pEC50,Vaccinia virus [7],4.85
same,pEC50,Vaccinia virus [8],4.22
O=C(NNC(=O)C1C2C=CC(C3CC23)C1C(=O)O)c1ccc(C(F)(F)F)cc1 (configuration not stated),EC50,Vaccinia virus [9],0.001 µg/mL
same,EC50,Ectromelia virus [10],0.011 µg/mL
same,EC50,Monkeypox virus [11],0.013 µg/mL
CCCCCCCCNCCC[C@@H](C)[C@H]1CC[C@H]2[C@@H]3[C@H](OCCCN)C[C@@H]4C[C@H](OCCCN)CC[C@]4(C)[C@H]3C[C@H](OCCCN)[C@]12C,EC90,Vaccinia virus [12],9150 nM
CC[C@H](CO)Nc1nc(NCc2ccccc2O)c2ncn(C(C)C)c2n1 [OLOMOUCINE II],pEC50,Vaccinia virus [13],5.42
C=C(CC)C(=O)c1ccc(OCC(=O)O)c(Cl)c1Cl [ETHACRYNIC ACID],pEC50,Vaccinia virus [14],4.40
same,pEC50,Vaccinia virus [15],4.70
Cc1cn([C@H]2C[C@H](O)[C@]3(CO)C[C@H]23)c(=O)[nH]c1=O [(NORTH)-METHANOCARBATHYMIDINE],pIC50,Cowpox virus [16],5.82
same,pIC50,Vaccinia virus [17],6.26
Oc1ccc(Cl)cc1Sc1cc(Cl)ccc1O [FENTICLOR],pIC50,Vaccinia virus [18],5.24
same,pIC50,Human alphaherpesvirus 2,5.62
Nc1nc(=O)n([C@@H]2C=C(CO)[C@@H](O)[C@H]2O)cc1F,pEC50,Variola virus [19],6.29
O=[N+]([O-])c1cc(/C=N/c2ccccc2/N=C/c2ccc(O)c(O)c2)ccc1O,pEC50,Vaccinia virus [20],4.88
same,pEC50,Vaccinia virus [21],4.96
O=c1[nH]c(=O)n([C@H]2C[C@H](O)[C@@H](CO)S2)cc1I,pEC50,Vaccinia virus [22],7.30
same,pEC50,Vaccinia virus [17],6.30
CCCCCCCCCCCCCCCCOCCCOP(=O)(O)CO[C@H](CO)Cn1ccc(N)nc1=O [BRINCIDOFOVIR],pEC50,Cowpox virus [16],6.22
Nc1ncnc2c1ncn2[C@@H]1C=C(CO)[C@@H](O)[C@H]1O [NEOPLANOCIN A],pEC50,Variola virus [19],7.00
CC(C)C(=O)OC[C@H]1O[C@@H](n2cc/c(=N\O)[nH]c2=O)[C@H](O)[C@@H]1O [MOLNUPIRAVIR],pEC50,Monkeypox virus [23],5.87
CC1(C)[C@@H]2CC[C@@]1(C)[C@H](NC(=O)CCN1CCOCC1)C2,pIC50,Vaccinia virus [24],5.13
CC(=O)Oc1ccccc1C(=O)Nc1ncc([N+](=O)[O-])s1 [NITAZOXANIDE],pEC50,Vaccinia virus [25],5.71
NC(CSC1(c2ccc(Cl)cc2)c2ccccc2-c2ccccc21)C(=O)O (configuration not stated),pIC50,Vaccinia virus [18],4.32
same,pIC50,Human alphaherpesvirus 2,4.46
NC(=O)c1cn([C@@H]2O[C@H](CO)[C@@H](O)[C@H]2O)c2ncnc(N)c12 [SANGIVAMYCIN],pEC50,Vaccinia virus [26],7.19
O=C1c2c(O)ccc(O)c2C(=O)c2c(NCCNCCO)ccc(NCCNCCO)c21 [MITOXANTRONE],pEC50,Cowpox virus [27],6.60
same,pEC50,Vaccinia virus [28],6.30
same,pEC50,Vaccinia virus [29],6.15
same,pEC50,Variola virus [30],6.60
same,pEC50,Monkeypox virus [31],6.10
COc1ccc(CCNC(=O)c2cc3ccccc3cc2O)cc1-c1ccc([N+](=O)[O-])cc1,pEC50,Vaccinia virus [32],4.92
Cc1cn([C@@]2(C)C[C@H](O)[C@@H](CO)S2)c(=O)[nH]c1=O,pEC50,Camelpox virus,6.10
same,pEC50,Vaccinia virus [33],6.39
same,pEC50,Cowpox virus [16],6.32
same,pEC50,Vaccinia virus [22],6.10
same,pEC50,Vaccinia virus [17],6.32
CC1(C)[C@@H]2CC[C@@]1(C)/C(=N/Nc1nc(-c3ccc(Br)cc3)cs1)C2,CC50 at 24 h,[34],77100 nM
Nc1ccn([C@@H]2C=C(CO)[C@@H](O)[C@H]2O)c(=O)n1,pEC50,Variola virus [19],7.52
O=C1C(O)=C([C@H]2CC[C@H](c3ccc(Cl)cc3)CC2)C(=O)c2ccccc21 [ATOVAQUONE],pEC50,Monkeypox virus [23],6.28
O=C(NNC(=O)C1C2C=CC(C3CC23)C1C(=O)O)c1ccccc1O (configuration not stated),EC50,Vaccinia virus [9],0.032 µg/mL
same,EC50,Ectromelia virus [10],0.54 µg/mL
same,EC50,Monkeypox virus [11],0.153 µg/mL
O[C@H]1[C@H]2c3cc4c(cc3CN3CCC(=C[C@@H]1O)[C@H]23)OCO4 [LYCORINE],pEC50,Variola virus [30],5.30
CN1C(=O)/C(=N\NC(N)=S)c2ccccc21 [METHISAZONE],pEC50,Vaccinia virus [7],5.48
same,pEC50,Vaccinia virus [8],4.85
O=S(=O)(c1ccc(C2=CSC(Nc3ccc(F)cc3)N2CCCCCCO)cc1)N1CCCC1 (configuration not stated),pEC50,Cowpox virus [35],5.35
same,pEC50,Vaccinia virus [36],5.34
CCC(C(=O)Nc1sc(C(N)=O)c(C)c1C(=O)OC)c1ccccc1 (configuration not stated),pEC50,Cowpox virus [3],5.08
same,pEC50,Vaccinia virus [37],4.71
same,pIC50,[38],4.87
same,pEC50,Vaccinia virus [4],4.73
OC(c1cc(C(F)(F)F)nc2c(C(F)(F)F)cccc12)C1CCCCN1 (configuration not stated) [MEFLOQUINE],pEC50,Monkeypox virus [23],5.28
CC1(C)[C@H]2CC[C@]1(C)[C@H](OC(=O)CCCN1CCOCC1)C2,pIC50,Vaccinia virus [24],5.10
CO[C@H]1/C=C/O[C@@]2(C)Oc3c(C)c(O)c4c(O)c(c(/C=N/N5CCN(C)CC5)c(O)c4c3C2=O)NC(=O)/C(C)=C\C=C\[C@H](C)[C@H](O)[C@@H](C)[C@@H](O)[C@@H](C)[C@H](OC(C)=O)[C@@H]1C [RIFAMPIN],IC50,Vaccinia virus [18],~100 µg/mL
CCc1ccc(S(=O)(=O)c2ccc(Cl)cc2)cc1,pEC50,Vaccinia virus [1],4.73
